Data reported in patent US9976183B2, “Biomarkers for cancers responsive to modulators of HEC1 activity” (TAIVEX THERAPEUTICS CORPORATION, priority 2011, dated 2018).

Key:
Type in all cases: cell-based
Huh7 [1] = assay: Drug sensitivity, MTS cell viability assay (GI50)
Protocol: (§1) Drug sensitivity: Cell lines were screened for drug sensitivity by treatment with specified drugs 24 hours after seeding in appropriate seeding numbers into 96 well plates containing low glucose DME with 10% FBS. The drug was added to the plate in triplicate wells, and the cells are incubated in drug treated medium for 96 hours before cell viability was determined by MTS assay using CellTiter 96® Aqueous non-radioactive cell proliferation assay system (Promega, Madison, Wis. 53711 USA). The MTS assay was performed according to the manufacturer's instructions. Optical density was measured using a Bio-Tek 340 spectrophotometer (Bio-Tek, Winooski, Vt. 05404) and optical readings were then processed in Excel (Microsoft, Redmond, Wash. 98052-7329) and GraphPad Prism 5 linear regression software (GraphPad Software, La Jolla, Calif. 92037 USA) to determine concentration-response curves for calculating relative GI50s. […] The % growth inhibition of the test drug on cells were calculated as: [1−(Test Value)/(Control Value)]×100; these values were used to plot concentration-response curves, and then analyzed with linear regression software.

HepG2 [2] = assay: Synergy of Hec1 inhibitor with cytotoxic drug (combination index, MTS); set-up: key: CI = (CA,X/ICx,A)+(CB,X/ICx,B) at x% drug effect
Protocol: (§2) Synergy: GI50s for selected drugs were determined and used to calculate a concentration ratio for use synergy assays with Hec1 inhibitors. Cells were treated with drugs 24 hours after being seeded in appropriate seeding numbers into 96 well plates containing low glucose DME with 10% FBS. […] Cell viability was determined by MTS assay using a CellTiter 96® Aqueous non-radioactive cell proliferation assay system (Promega, Madison, Wis. 53711 USA) according to the manufacturer's instructions. Optical density was determined using a Bio-Tek 340 spectrophotometer (Bio-Tek, Winooski, Vt. 05404) and were then processed using Excel (Microsoft, Redmond, Wash. 98052-7329) and GraphPad Prism 5 linear regression software (GraphPad Software, La Jolla, Calif. 92037 USA) to determine concentration-response curves for calculating relative GI50s. Synergy was determined by calculating a combination index value using the formula CI (combination index)=(CA,X/ICx,A)+(CB,X/ICx,B), where CA,X and CB,X are the concentrations of drug A and drug B used in combination to achieve x % drug effect. ICx,A and ICx,B are the concentrations for single agents to achieve the same effect.
(§3) Hec1 inhibitor-responsive cancer cells used for screening were treated with a mixture of Hec1 inhibitor and select anti-cancer drug at appropriate concentration ratios and evaluated for cell viability.

PCL/PRF/5 = assay: as above; set-up: key: CI = (CA,X/ICx,A)+(CB,X/ICx,B) at x% drug effect
Protocol: as §2, §3

MEX-SA/Dx5 = assay: Drug sensitivity, MTS assay, drug resistant cell line; settings: MEX-SA/Dx5, multi-drug resistant uterine sarcoma
Protocol: as §1

NCI/ADR-RES = assay: as above; settings: Homo sapiens, multi-drug resistant uterine sarcoma
Protocol: as §1

K562R = assay: as above; settings: Homo sapiens, K-562R, Gleevec resistant myelogenous leukemia
Protocol: as §1

K562 [3] = assay: Synergy of Hec1 inhibitor with cytotoxic drug (combination index, MTS)
Protocol: as §2, §3

MB-468 = assay: as above
Protocol: as §2, §3

MB-231 = assay: as above
Protocol: as §2, §3

HeLa [4] = assay: as above
Protocol: as §2, §3

Hep3B [5] = assay: as above; set-up: key to Combination Index: CI = (CA,X/ICx,A)+(CB,X/ICx,B) at x% drug effect
Protocol: as §2, §3

Huh7 [6] = assay: as above; set-up: key to Combination Index: CI = (CA,X/ICx,A)+(CB,X/ICx,B) at x% drug effect
Protocol: as §2, §3

K562 [7] = assay: Drug sensitivity, MTS cell viability assay (GI50); settings: Homo sapiens, K562, 96 h
Protocol: as §1

HepG2 [8] = assay: Drug sensitivity, MTS cell viability assay (GI50); settings: Homo sapiens; for GI50: HepG2, 96 hours, MTS
Protocol: as §1

T47D = assay: Drug sensitivity, MTS cell viability assay (GI50); settings: Homo sapiens, 96 hours
Protocol: as §1

HeLa [9] = assay: Drug sensitivity, MTS cell viability assay (GI50); settings: Homo sapiens, 96 hours
Protocol: as §1

Hep3B [10] = assay: Drug sensitivity, MTS cell viability assay (GI50); settings: Homo sapiens, 96 h
Protocol: as §1

MDA-MB-468 = assay: Drug sensitivity, MTS cell viability assay (GI50)
Protocol: as §1

Hs578T = assay: Drug sensitivity, MTS cell viability assay (GI50); settings: Homo sapiens, Hs-578T, 96 hours
Protocol: as §1

ZR-75-1 = assay: Drug sensitivity, MTS cell viability assay (GI50); settings: Homo sapiens, ZR-75-1, 96 hours
Protocol: as §1

PLC/PRF/5 = assay: Drug sensitivity, MTS cell viability assay (GI50); settings: Homo sapiens, PLC/PRF/5, 96 hours
Protocol: as §1

MDA-MB-453 = assay: Drug sensitivity, MTS cell viability assay (GI50); settings: Homo sapiens, MDA-MB-453, 96 hours
Protocol: as §1

MDA-MB-231 = assay: Drug sensitivity, MTS cell viability assay (GI50)
Protocol: as §1

[11] = in combination with doxorubicin
[12] = in combination with Taxol (paclitaxel)
[13] = Homo sapiens, Huh-7, 96 h, Huh7, 96 hours, MTS

Work on `O=C(Cc1ccc(-c2ccc(OCCN3CCOCC3)cc2)cn1)NCc1ccccc1` [KX01] yielded a GI50 (Huh7 [1]; Huh7, 96 hours, MTS) of 27.2 nM.
For `COc1ccc(Oc2cc(C)c(-c3csc(NC(=O)c4ccnc(F)c4)n3)c(C)c2)cc1` [compound 101015, 2-fluoro-N-(4-(4-(4-methoxyphenoxy)-2,6-dimethylphenyl)thiazol-2-yl)isonicotinamide], the “Combination Index” value (HepG2 [2]; in combination with KX01) was 1.68, the “Combination Index” value (HepG2 [2]; [11]) was 1.74 and the “Combination Index” value (HepG2 [2]; in combination with sorafenib) was 0.89. The “Combination Index” value (HepG2 [2]; in combination with topotecan) was 1.92, the “Combination Index” value (PCL/PRF/5; in combination with KX01) was 1.31 and the “Combination Index” value (PCL/PRF/5; in combination with Taxol) was 0.99. The “Combination Index” value (PCL/PRF/5; [11]) was 1.65, the “Combination Index” value (PCL/PRF/5; in combination with sorafenib) was 1.15 and the “Combination Index” value (PCL/PRF/5; in combination with topotecan) was 1.17. The GI50 (MEX-SA/Dx5) was 34.9 nM, the GI50 (NCI/ADR-RES) was 21.6 nM and the GI50 (K562R) was 26 nM. The “Combination Index” value (K562 [3]; [12]) was 0.62, the “Combination Index” value (K562 [3]; [11]) was 0.62 and the “Combination Index” value (K562 [3]; in combination with topotecan) was 1.12. The “Combination Index” value (MB-468; in combination with Taxol) was 1.16, the “Combination Index” value (MB-468; [11]) was 1.23 and the “Combination Index” value (MB-468; in combination with topotecan) was 0.74. For the same molecule, the “Combination Index” value (MB-231; [12]) was 0.98, the “Combination Index” value (MB-231; [11]) was 1.75 and the “Combination Index” value (MB-231; in combination with topotecan) was 0.85. For the same molecule, the “Combination Index” value (HeLa [4]; in combination with Taxol) was 1.01, the “Combination Index” value (HeLa [4]; [11]) was 6.83 and the “Combination Index” value (HeLa [4]; in combination with topotecan) was 1.58. For the same molecule, the “Combination Index” value (Hep3B [5]; in combination with KX01) was 2.32, the “Combination Index” value (Hep3B [5]; in combination with Taxol) was 2.38 and the “Combination Index” value (Hep3B [5]; [11]) was 2.00. For the same molecule, the “Combination Index” value (Hep3B [5]; in combination with sorafenib) was 1.91, the “Combination Index” value (Hep3B [5]; in combination with topotecan) was 1.05 and the “Combination Index” value (Huh7 [6]; in combination with KX01 (KXO1)) was 1.08. The “Combination Index” value (Huh7 [6]; [12]) was 0.32, the “Combination Index” value (Huh7 [6]; [11]) was 0.54 and the “Combination Index” value (Huh7 [6]; in combination with sorafenib) was 1.08. For the same molecule, the “Combination Index” value (Huh7 [6]; in combination with topotecan) was 0.62.
Molecule `COc1cccc2c1C(=O)c1c(O)c3c(c(O)c1C2=O)C[C@@](O)(C(=O)CO)C[C@@H]3O[C@H]1C[C@H](N)[C@H](O)[C@H](C)O1` [doxorubicin] has a GI50 (K562 [7]) of 36.2 nM, a GI50 (HepG2 [8]) of 0.746 µM and a GI50 (T47D) of 11.9 nM. It also gave a GI50 (HeLa [9]) of 242 nM, a GI50 (Hep3B [10]) of 248 nM and a GI50 (MDA-MB-468; Homo sapiens, MDA-MB-468, 96 h) of 28.3 nM. The GI50 (MDA-MB-468; MDA-MB-468, 96 hours) was 27 nM, the GI50 (Hs578T) was 711 nM and the GI50 (ZR-75-1) was 0.0929 µM. The GI50 (PLC/PRF/5) was 69.7 nM, the GI50 (MDA-MB-453) was 158 nM and the GI50 (Huh7 [1]; [13]) was 183 nM. It also gave a GI50 (Huh7 [1]; Homo sapiens, Huh-7, Huh7, unit inferred) of 183 nM.
Work on `CC(=O)O[C@H]1C(=O)[C@@]2(C)[C@H]([C@H](OC(=O)c3ccccc3)[C@]3(O)C[C@H](OC(=O)[C@H](O)[C@@H](NC(=O)c4ccccc4)c4ccccc4)C(C)=C1C3(C)C)[C@]1(OC(C)=O)CO[C@@H]1C[C@@H]2O` [paclitaxel] yielded a GI50 (MEX-SA/Dx5) of 6250 nM, a GI50 (NCI/ADR-RES) of 2330 nM and a GI50 (K562R) of 34.5 nM. The GI50 (MDA-MB-231; Homo sapiens, MDA-MB-231, 96 h) was 3 nM, the GI50 (MDA-MB-231; MDA-MB-231, 96 hours) was 4.91 nM and the GI50 (HepG2 [8]; bound given in μM) was > 50 µM. The IC50 (HepG2 [8]; HepG2, Taxol-resistant) was > 10000 nM, the GI50 (T47D) was 3.19 nM and the GI50 (HeLa [9]) was 7.8 nM. It also gave a GI50 (Hep3B [10]) of 9.47 nM, a GI50 (MDA-MB-468; Homo sapiens, MDA-MB-468, 96 h) of 2.38 nM and a GI50 (Hs578T) of 8.39 nM. For the same molecule, the GI50 (ZR-75-1; bound given in μM) was > 10 µM, the GI50 (PLC/PRF/5) was 8.58 nM and the GI50 (MDA-MB-453) was 1.42 nM. The GI50 (Huh7 [1]; Huh7, 96 hours, MTS) was 93.5 nM.
For `CNC(=O)c1cc(Oc2ccc(NC(=O)Nc3ccc(Cl)c(C(F)(F)F)c3)cc2)ccn1` [sorafenib], the GI50 (MDA-MB-231; Homo sapiens, MDA-MB-231, 96 h) was 3040 nM, the GI50 (HepG2 [8]) was 8.25 µM and the GI50 (T47D) was 1730 nM. The GI50 (Hep3B [10]) was 3680 nM, the GI50 (MDA-MB-468; Homo sapiens, MDA-MB-468, 96 h) was 3170 nM and the GI50 (ZR-75-1) was 4.34 µM. It also gave a GI50 (PLC/PRF/5) of 3760 nM, a GI50 (MDA-MB-453) of 2520 nM and a GI50 (Huh7 [1]; [13]) of 4500 nM.
With `CC[C@@]1(O)C(=O)OCc2c1cc1n(c2=O)Cc2cc3c(CN(C)C)c(O)ccc3nc2-1` [topotecan] the GI50 (K562 [7]) was 36.1 nM, the GI50 (MDA-MB-231; Homo sapiens, MDA-MB-231, 96 h) was 347 nM and the GI50 (HepG2 [8]) was 0.435 µM. For the same molecule, the GI50 (T47D) was 9.43 nM, the GI50 (HeLa [9]) was 637 nM and the GI50 (Hep3B [10]) was 422 nM. For the same molecule, the GI50 (MDA-MB-468; Homo sapiens, MDA-MB-468, 96 h) was 10.7 nM, the GI50 (Hs578T) was 4960 nM and the GI50 (ZR-75-1) was 0.0363 µM. It also gave a GI50 (PLC/PRF/5) of 174 nM, a GI50 (MDA-MB-453) of 92.3 nM and a GI50 (Huh7 [1]; Huh7, 96 hours, MTS) of 50.9 nM.
